According to BindingDB's records for PubMed 34752953 (Zhengzhou University, 2022):

Target: Indoleamine 2,3-dioxygenase 1 (Homo sapiens, UniProt P14902)
Assay: Inhibition of IDO1 (unknown origin)

Indoleamine 2,3-dioxygenase 1, sequence (P14902 whole entry): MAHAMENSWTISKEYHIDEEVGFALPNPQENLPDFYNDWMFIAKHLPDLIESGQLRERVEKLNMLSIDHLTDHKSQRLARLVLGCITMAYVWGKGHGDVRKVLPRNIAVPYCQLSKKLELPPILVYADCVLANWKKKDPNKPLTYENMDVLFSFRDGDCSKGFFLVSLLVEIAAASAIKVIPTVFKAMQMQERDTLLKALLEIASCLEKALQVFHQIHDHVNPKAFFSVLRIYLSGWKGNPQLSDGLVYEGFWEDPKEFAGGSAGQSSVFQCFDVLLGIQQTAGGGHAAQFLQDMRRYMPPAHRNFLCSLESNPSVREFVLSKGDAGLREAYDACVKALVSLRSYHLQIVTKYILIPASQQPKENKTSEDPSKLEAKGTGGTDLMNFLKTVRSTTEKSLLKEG

`O[C@@H](C[C@H]1c2sccc2-c2cncn21)C1CCC(F)(F)CC1` showed an IC50 of 11 nM.
